Test results taken from BigSolDB 2.1.

CC1(C)CC(NCCCCCCNC2CC(C)(C)NC(C)(C)C2)CC(C)(C)N1
solubility (mole fraction)
Conditions | in acetone | in acetonitrile | in ethyl acetate | in isobutyl acetate | in isopropyl acetate | in methyl acetate | in n-propyl acetate
273.15 K | 0.00859 | 0.00115 | 0.0288 | 0.0497 | 0.0408 | 0.0224 | 0.0341
278.15 K | 0.013 | 0.00183 | 0.0396 | 0.0625 | 0.0549 | 0.0321 | 0.046
283.15 K | 0.0191 | 0.00233 | 0.056 | 0.0831 | 0.0736 | 0.0448 | 0.063
288.15 K | 0.029 | 0.00371 | 0.0776 | 0.108 | 0.0983 | 0.0663 | 0.084
293.15 K | 0.0467 | 0.00537 | 0.108 | 0.139 | 0.128 | 0.102 | 0.113
298.15 K | 0.0737 | 0.00821 | 0.145 | 0.178 | 0.165 | 0.142 | 0.152
303.15 K | 0.117 | 0.0139 | 0.193 | 0.226 | 0.212 | 0.185 | 0.2
